Literature values as cited in patent US20090186834A1, “DIPHENYLHETEROCYCLE CHOLESTEROL ABSORPTION INHIBITORS” (MICROBIA, INC., priority 2005, published 2009).

What was measured:
[1] = test system: absorption of taurocholic acid; settings: in vivo
[2] = test system: fat-SOluble vitamin absorption; settings: in humans

Compound: O=C1[C@H](CC[C@H](O)c2ccc(F)cc2)[C@@H](c2ccc(O)cc2)N1c1ccc(F)cc1 [ezetimibe, (3R,4S)-1-(4-fluorophenyl)-3-[(3S)-3-(4-fluorophenyl)-3-hydroxypropyl]-4-(4-hydroxyphenyl)azetidin-2-one]
- inhibition of the absorption of taurocholic acid [1]: does not inhibit
- effect on fat-SOluble vitamin absorption [2]: does not appear to affect
